Laboratory results taken from ChEMBL document CHEMBL1201862, “PubChem BioAssay data set” (2004).
Calls of active or inactive are those of the source.

How the values were obtained:
Hexokinase HKDC1 = biological target: T1, Hexokinase HKDC1 (Homo sapiens, UniProt Q2TB90); experiment: activation of HKDC1 glucose phosphorylation – biochemical, W721R variant, dose response (AID 504730); format: functional
T1 sequence (Q2TB90 whole entry): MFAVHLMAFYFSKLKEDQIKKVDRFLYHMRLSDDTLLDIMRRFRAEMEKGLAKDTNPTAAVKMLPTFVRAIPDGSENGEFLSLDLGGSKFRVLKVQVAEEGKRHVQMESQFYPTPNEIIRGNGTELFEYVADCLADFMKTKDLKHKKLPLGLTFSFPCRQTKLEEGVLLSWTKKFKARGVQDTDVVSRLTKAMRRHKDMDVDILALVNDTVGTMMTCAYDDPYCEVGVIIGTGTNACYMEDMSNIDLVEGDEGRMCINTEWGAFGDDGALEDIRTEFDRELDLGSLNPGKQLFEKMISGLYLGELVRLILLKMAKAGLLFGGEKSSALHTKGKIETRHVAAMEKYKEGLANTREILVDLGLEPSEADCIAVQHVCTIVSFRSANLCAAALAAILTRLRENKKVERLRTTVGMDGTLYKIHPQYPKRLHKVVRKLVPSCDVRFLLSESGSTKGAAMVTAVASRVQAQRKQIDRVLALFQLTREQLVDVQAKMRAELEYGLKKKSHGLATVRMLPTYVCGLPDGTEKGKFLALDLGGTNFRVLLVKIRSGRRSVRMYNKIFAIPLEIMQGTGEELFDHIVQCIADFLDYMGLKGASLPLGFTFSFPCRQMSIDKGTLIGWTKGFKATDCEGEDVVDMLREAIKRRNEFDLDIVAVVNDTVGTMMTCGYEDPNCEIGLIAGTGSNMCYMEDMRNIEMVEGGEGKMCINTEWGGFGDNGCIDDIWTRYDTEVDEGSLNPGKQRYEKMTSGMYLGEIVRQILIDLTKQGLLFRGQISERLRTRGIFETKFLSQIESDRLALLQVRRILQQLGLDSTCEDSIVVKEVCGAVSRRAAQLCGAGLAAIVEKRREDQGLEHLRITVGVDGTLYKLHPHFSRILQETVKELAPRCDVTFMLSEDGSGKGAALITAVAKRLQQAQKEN

Nonstructural protein 1 = Nonstructural protein 1 (Influenza A virus, UniProt Q194T2); format: functional, Influenza A virus (A/California/07/2009(H1N1))
Hexokinase-1 = Hexokinase-1 (Homo sapiens, UniProt P19367); experiment: HK1 enzyme activation by HKDC1 hits – biochemical, selectivity assay for HKDC1 activator project, dose response (AID 504762); format: functional
HEK293 = experiment: EBV LMP1 TES2 canonical NF-kB signalling blockers – cell-based, HEK293, luciferase, cherry-pick, dose response (AID 588343); format: functional; settings: Homo sapiens
[1] = biological target: Heat shock protein HSP 90-alpha (Homo sapiens, UniProt P07900); format: functional, organism-based
[2] = biological target: Signal transducer and activator of transcription 3 (Homo sapiens, UniProt P40763); experiment: STAT3 blockade with qPCR and toxicity readouts – cell-based, STAT1 panel, cytotoxicity, late-stage follow-up, panel member STAT3 Inhibition (AID 2078)
[3] = biological target: Signal transducer and activator of transcription 1-alpha/beta (Homo sapiens, UniProt P42224); experiment: STAT3 blockade with qPCR and toxicity readouts – cell-based, STAT1 panel, cytotoxicity, late-stage follow-up, panel member STAT1 Inhibition (AID 2078)
CHO-K1 = experiment: (§1) Counterscreen for antagonists of the orexin 1 receptor (OX1R; HCRTR1): Homogeneous time resolved fluorescence (HTRF)-based cell-based dose response assay to identify antagonists of the parental CHO-K1 cell line. [Related pubchem assays (depositor defined):AID434989, AID435008, AID463079, AID485270, AID492963, AID492964, AID492965, AID493232, AID504699, AID504701]; format: functional; settings: Cricetulus griseus
[4] = as §1, with “Fluorescence-based” for “Homogeneous time resolved fluorescence (HTRF)-based”, “cell-based high throughput” for “cell-based”, “CHO” for “CHO-K1”; format: functional
[5] = biological target: T2, Orexin/Hypocretin receptor type 1 (Homo sapiens, UniProt O43613); experiment: Homogeneous Time Resolved Fluorescence (HTRF)-based cell-based high throughput dose response assay for antagonists of the orexin 1 receptor (OX1R; HCRTR1). [Related pubchem assays (depositor defined):AID434989, AID435008, AID463079, AID485270, AID492963, AID492964, AID492965, AID493232, AID504717, AID504718]; format: functional
T2 sequence (O43613 whole entry): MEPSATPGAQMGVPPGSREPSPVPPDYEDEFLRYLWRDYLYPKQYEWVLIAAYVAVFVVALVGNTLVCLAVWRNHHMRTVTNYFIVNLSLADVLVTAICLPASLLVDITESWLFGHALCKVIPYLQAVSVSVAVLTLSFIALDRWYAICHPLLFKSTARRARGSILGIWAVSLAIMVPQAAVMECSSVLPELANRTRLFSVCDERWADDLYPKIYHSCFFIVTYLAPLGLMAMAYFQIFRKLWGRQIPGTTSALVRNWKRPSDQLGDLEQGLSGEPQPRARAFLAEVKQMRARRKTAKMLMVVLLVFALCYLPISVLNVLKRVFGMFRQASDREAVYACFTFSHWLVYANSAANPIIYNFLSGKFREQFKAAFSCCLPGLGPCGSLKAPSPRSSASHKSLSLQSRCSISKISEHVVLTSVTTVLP

[6] = biological target: T2, Orexin/Hypocretin receptor type 1; experiment: Fluorescence-based cell-based high throughput dose response assay for antagonists of the orexin 1 receptor (OX1R; HCRTR1). [Related pubchem assays (depositor defined):AID434989, AID435008, AID463079, AID485270, AID492963, AID492964, AID492965, AID493232, AID504717, AID504718]; format: functional
Orexin receptor type 2 [7] = biological target: T3, Orexin receptor type 2 (Homo sapiens, UniProt O43614); experiment: Counterscreen assay for antagonists of the orexin 1 receptor (OX1R; HCRTR1): Fluorescence-based cell-based dose response assay for antagonists of the orexin 2 receptor (OX2R; HCRTR2), run by assay provider.; format: functional
T3 sequence (O43614 whole entry): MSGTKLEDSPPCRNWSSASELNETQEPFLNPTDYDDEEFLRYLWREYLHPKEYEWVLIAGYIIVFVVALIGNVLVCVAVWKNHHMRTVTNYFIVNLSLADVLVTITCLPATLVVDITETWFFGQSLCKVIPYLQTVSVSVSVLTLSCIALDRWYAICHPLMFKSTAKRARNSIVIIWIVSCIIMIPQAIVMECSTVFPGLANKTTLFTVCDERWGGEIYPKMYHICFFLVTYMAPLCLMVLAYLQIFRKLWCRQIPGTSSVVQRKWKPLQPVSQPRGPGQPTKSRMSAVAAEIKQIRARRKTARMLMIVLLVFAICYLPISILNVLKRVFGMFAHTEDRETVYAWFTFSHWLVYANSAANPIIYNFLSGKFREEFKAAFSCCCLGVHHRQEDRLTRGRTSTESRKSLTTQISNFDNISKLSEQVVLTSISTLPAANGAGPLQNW

Orexin receptor type 2 [8] = biological target: T3, Orexin receptor type 2; experiment: Counterscreen assay for antagonists of the orexin 1 receptor (OX1R; HCRTR1): Homogeneous Time Resolved Fluorescence (HTRF)-based cell-based dose response assay for antagonists of the orexin 2 receptor (OX2R; HCRTR2), run by assay provider.; format: functional
[9] = luciferase reporter signal suppression in cells – H4 neuroglioma cells, luminescence, dose response (AID 1990); format: functional, cell-based
[10] = Luminescence Cell-Based Dose Response HTS to Identify Inhibitors of 5'UTR Stem-Loop Driven Prion Protein mRNA Translation in H4 Neuroglioblastoma Cells. [Related pubchem assays: 1827 (Project Summary), 1813 (Primary HTS)]; format: functional
SUMO-activating enzyme = SUMO-activating enzyme (Homo sapiens, UniProt Q9UBT2); experiment: blockers of UBC9-mediated SUMO conjugation – biochemical, AlphaScreen, SUMOylation inhibitor project, confirmation (AID 2018); format: functional
[11] = alpha-synuclein stem-loop luciferase translation blockers – H4 neuroglioma cells, luminescence, confirmation (AID 1988); format: functional, cell-based

Signal transducer and activator of transcription 3, sequence (P40763 whole entry): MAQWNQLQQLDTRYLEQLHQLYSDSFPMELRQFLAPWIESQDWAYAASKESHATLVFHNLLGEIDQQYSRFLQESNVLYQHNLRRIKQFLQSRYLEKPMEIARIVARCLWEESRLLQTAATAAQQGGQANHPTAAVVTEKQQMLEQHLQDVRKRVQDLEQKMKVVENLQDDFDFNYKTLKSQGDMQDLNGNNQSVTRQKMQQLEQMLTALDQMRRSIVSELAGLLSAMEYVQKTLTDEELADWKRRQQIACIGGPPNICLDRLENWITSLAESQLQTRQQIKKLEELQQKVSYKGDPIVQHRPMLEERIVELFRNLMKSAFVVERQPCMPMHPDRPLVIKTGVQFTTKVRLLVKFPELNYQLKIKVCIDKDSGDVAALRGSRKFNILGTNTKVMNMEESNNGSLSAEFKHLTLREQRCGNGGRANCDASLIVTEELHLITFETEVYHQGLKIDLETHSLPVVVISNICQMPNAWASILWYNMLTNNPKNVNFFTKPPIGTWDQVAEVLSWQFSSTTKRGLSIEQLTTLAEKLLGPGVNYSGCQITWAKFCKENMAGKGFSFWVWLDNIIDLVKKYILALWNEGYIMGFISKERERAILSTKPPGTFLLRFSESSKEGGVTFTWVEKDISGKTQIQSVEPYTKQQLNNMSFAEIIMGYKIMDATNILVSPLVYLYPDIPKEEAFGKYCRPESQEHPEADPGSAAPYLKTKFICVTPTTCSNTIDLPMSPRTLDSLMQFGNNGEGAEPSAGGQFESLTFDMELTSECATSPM
SUMO-activating enzyme, sequence (Q9UBE0 whole entry): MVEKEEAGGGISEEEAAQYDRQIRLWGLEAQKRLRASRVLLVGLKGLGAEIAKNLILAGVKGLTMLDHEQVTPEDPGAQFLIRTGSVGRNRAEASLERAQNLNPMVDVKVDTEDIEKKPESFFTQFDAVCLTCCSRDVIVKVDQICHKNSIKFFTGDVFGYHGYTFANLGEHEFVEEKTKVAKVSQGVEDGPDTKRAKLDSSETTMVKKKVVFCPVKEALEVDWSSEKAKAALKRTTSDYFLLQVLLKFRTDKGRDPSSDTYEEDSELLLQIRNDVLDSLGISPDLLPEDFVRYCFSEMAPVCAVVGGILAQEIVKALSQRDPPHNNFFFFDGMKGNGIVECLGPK
SUMO-activating enzyme, sequence (Q9UBT2 whole entry): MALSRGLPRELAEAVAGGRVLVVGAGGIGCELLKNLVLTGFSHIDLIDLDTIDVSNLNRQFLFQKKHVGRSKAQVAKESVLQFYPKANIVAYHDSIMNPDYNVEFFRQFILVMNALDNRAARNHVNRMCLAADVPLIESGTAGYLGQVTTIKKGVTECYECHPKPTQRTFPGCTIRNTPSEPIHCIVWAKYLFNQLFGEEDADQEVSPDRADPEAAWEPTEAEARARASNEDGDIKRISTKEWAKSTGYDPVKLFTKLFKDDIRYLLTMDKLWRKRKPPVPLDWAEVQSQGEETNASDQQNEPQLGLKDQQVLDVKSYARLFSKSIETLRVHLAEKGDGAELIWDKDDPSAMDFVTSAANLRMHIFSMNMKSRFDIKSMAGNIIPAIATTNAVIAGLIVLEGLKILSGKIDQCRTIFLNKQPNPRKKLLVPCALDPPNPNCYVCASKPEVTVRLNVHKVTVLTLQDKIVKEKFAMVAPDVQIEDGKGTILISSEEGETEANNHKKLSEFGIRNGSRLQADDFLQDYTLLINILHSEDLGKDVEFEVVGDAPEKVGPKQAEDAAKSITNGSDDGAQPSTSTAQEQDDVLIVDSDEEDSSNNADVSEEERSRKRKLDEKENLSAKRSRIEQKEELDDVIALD
Signal transducer and activator of transcription 1-alpha/beta, sequence (P42224 whole entry): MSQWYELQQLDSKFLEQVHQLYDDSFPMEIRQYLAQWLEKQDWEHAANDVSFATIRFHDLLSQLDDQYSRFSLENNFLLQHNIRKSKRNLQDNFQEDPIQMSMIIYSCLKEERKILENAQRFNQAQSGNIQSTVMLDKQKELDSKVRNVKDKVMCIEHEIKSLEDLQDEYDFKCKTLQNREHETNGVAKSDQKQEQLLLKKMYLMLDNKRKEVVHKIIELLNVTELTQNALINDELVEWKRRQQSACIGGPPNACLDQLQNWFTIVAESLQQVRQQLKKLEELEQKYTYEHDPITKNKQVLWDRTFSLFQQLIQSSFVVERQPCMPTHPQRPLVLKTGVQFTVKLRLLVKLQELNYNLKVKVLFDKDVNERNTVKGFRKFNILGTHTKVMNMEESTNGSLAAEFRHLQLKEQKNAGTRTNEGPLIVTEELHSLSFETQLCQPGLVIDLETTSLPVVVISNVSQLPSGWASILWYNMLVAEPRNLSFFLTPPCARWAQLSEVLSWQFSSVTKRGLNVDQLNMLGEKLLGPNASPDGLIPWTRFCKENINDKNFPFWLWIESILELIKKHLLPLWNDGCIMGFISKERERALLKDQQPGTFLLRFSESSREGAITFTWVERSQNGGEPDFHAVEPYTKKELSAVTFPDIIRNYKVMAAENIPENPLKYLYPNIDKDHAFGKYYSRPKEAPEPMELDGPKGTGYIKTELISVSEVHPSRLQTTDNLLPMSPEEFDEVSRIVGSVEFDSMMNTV
Nonstructural protein 1, sequence (Q194T2 whole entry): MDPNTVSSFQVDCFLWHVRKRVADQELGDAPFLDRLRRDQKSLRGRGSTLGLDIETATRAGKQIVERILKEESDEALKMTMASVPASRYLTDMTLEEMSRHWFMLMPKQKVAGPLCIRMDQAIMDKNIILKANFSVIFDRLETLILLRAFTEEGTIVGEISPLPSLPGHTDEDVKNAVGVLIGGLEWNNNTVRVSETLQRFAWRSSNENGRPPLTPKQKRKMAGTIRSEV
Hexokinase-1, sequence (P19367 whole entry): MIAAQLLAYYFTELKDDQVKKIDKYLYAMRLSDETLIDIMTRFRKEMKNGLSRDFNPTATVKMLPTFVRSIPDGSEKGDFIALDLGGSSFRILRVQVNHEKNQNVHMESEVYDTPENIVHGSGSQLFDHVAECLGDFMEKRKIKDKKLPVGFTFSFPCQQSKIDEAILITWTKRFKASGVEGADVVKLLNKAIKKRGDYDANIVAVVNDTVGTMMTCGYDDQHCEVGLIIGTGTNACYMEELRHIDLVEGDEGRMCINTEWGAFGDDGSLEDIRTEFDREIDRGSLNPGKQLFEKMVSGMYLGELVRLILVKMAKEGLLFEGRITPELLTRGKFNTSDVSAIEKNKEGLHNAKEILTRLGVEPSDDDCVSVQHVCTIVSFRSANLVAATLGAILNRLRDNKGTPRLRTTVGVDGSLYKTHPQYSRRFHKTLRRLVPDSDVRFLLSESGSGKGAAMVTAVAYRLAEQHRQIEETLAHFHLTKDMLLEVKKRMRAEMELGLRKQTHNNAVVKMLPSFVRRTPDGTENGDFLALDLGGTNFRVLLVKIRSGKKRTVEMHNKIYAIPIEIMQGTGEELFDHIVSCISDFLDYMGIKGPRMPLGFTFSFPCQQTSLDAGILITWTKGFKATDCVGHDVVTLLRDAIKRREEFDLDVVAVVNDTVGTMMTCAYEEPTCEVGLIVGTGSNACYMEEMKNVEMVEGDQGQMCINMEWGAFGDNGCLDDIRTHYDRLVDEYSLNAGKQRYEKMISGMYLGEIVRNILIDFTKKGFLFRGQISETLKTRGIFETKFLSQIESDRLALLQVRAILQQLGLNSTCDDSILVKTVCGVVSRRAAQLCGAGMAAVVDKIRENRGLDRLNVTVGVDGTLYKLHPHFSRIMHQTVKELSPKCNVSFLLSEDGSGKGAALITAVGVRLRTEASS

CC(=NNC(=S)Nc1cccc(Cl)c1)c1ccccn1
EC50 (Hexokinase HKDC1): 615 nM (active) | IC50 (Nonstructural protein 1): 15.4 µM (active) | EC50 (Hexokinase-1): > 80 µM (inactive) | AC50 (HEK293): 341 nM (active) | AC50 [1]: 16.2 µM (active)

COC(=O)c1cc2c(N3CCC(Cc4ccccc4)CC3)ncnc2s1
IC50 [2]: > 18.6 µM (inactive) | IC50 [3]: > 55.7 µM (inactive)

CNc1nc(Nc2ccc(C)c(Cl)c2)c2cnn(C)c2n1
IC50 (CHO-K1): > 66.2 µM (inactive) | IC50 [4]: > 49.8 µM (inactive) | IC50 [5]: 2.07 µM (active) | IC50 [6]: 14.4 µM (inactive) | IC50 (Orexin receptor type 2 [7]): > 88.8 µM (inactive) | IC50 (Orexin receptor type 2 [8]): > 50 µM (inactive)

C=CCn1c(N)c(C(=O)Nc2ccccc2)c2nc3ccccc3nc21
EC50 [9]: 22 µM (active) | EC50 [10]: > 120 µM (not active) | IC50 (SUMO-activating enzyme): 14.5 µM (active) | EC50 [11]: > 120 µM (not active)
